Patent US20230092001A1, “FURANEOL GLYCOSIDE COMPOUND, PHARMACEUTICAL COMPOSITION THEREOF, PREPARATION METHOD THEREFOR, AND APPLICATION THEREOF” (priority 2019, published 2023)

Columns and labels:
[1] = system: ulcerative colitis model (dextran sodium sulphate); test: Effect Example 3: therapeutic effect on ulcerative colitis, dextran sodium sulphate model, oral gavage, 7 days; format: in vivo, C57 mice; conditions: 40 mg/kg oral gavage
Experimental: Fifty 10-week-old male C57 mice, SPF class animal house, temperature 20-26° C., humidity 40%-70%, alternating light-dark periods (12 h/12 h).
(§1) Quarantine-qualified animals with similar weights were selected for the experiment.
Mice in the blank control group were given normal drinking water throughout the experiment. The other 9 groups of mice were given drinking water containing 2% dextran sodium sulphate from day 1 to day 7. All groups were administered by oral gavage once a day according to table 10, until the end of the experiment.
(§2) (1) The mice were weighed daily.
(2) Blood samples were collected from the orbital vein on day 7 and stored at −80° C.
(3) On day 7, the mice were sacrificed by cervical vertebra dislocation, the colon was removed and a small amount of fecal was taken from the colon and left as a sample. The colon length and colon weight were measured. A portion of the colon and the fecal sample was stored at −80° C.

[2] = system: ulcerative colitis model (dextran sodium sulphate); test: Effect example 2: therapeutic effect on ulcerative colitis, dextran sodium sulphate model, oral gavage, 14 days; format: in vivo, C57 mice; conditions: treatment group 40 mg/kg oral gavage
Experimental: Thirty-five 10-week-old male C57 mice, SPF class animal house, temperature 20-26° C., humidity 40%-70%, alternating light-dark periods (12 h/12 h).
as §1
Mice in the blank control group were given normal drinking water throughout the experiment. The other 6 groups of mice were given drinking water containing 2% dextran sodium sulphate from day 1 to day 5, normal drinking water from day 6 to day 7, drinking water containing 2% dextran sodium sulphate from day 8 to day 12, and normal drinking water from day 13 to day 14. The experiment ended on day 14. All groups were administered by oral gavage once a day according to table 7, until the end of the experiment on day 14.
as §2
(2) Blood samples were collected from the orbital vein on day 14 and stored at −80° C.
(3) On day 14, the mice were sacrificed by cervical vertebra dislocation, the colon was removed and a small amount of fecal was taken from the colon and left as a sample. The colon length and colon weight were measured. A portion of the colon and the fecal sample was stored at −80° C.

SMILES: CC(=O)OC[C@H]1O[C@@H](OC2=C(C)OC(=C(C)C)C2=O)[C@H](OC(C)=O)[C@@H](OC(C)=O)[C@@H]1OC(C)=O [Compound I-2, 4-O-[(2,3,4,6-tetra-O-acetyl)-β-D-glucosyl]-5-methyl-2-(1-methylethylidene)-3(2H)-furanone]
- Average weight of mice ([1]; Day 1): 21.53 g
- Average weight of mice ([1]; Day 2): 21.42 g
- Average weight of mice ([1]; Day 3): 21.25 g
- Average weight of mice ([1]; Day 4): 20.97 g
- Average weight of mice ([1]; Day 5): 20.72 g
- Average weight of mice ([1]; Day 6): 20.27 g
- Average weight of mice ([1]; Day 7): 19.27 g
- Average colon length of mice ([1]; day 7): 5.8 cm
- Average weight of mice ([2]; Day 1): 26.86 g
- Average weight of mice ([2]; Day 2): 26.9 g
- Average weight of mice ([2]; Day 3): 26.82 g
- Average weight of mice ([2]; Day 4): 26.86 g
- Average weight of mice ([2]; Day 5): 26.58 g
- Average weight of mice ([2]; Day 6): 26.48 g
- Average weight of mice ([2]; Day 7): 25.18 g
- Average weight of mice ([2]; Day 8): 23.78 g
- Average weight of mice ([2]; Day 9): 23.64 g
- Average weight of mice ([2]; Day 10): 23.64 g
- Average weight of mice ([2]; Day 11): 24.72 g
- Average weight of mice ([2]; Day 12): 24.82 g
- Average weight of mice ([2]; Day 13): 24.8 g
- Average weight of mice ([2]; Day 14): 24.92 g
- Average colon length of mice ([2]; day 14): 6.2 cm
